In PubChem BioAssay (NCI):
Values joined by “and” are separate entries in the source; they are usually repeats but may differ in a detail not shown here. Equal values may be shown once.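 Five compound concentrations were applied to cells in 96-well plates for 48 hours; endpoints were derived by simple linear interpolation of the resulting dose-response curve. GI50 marks 50% less growth. TGI: concentration producing complete growth inhibition.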

Legend:
Assay in all cases: NCI-60 cell line screen, 48 h
U251 CNS = tested on: U251 CNS
NCI-H23 lung = tested on: NCI-H23 lung
SN12C renal = tested on: SN12C renal
EKVX NSCLC = tested on: EKVX NSCLC
MALME-3M melanoma = tested on: MALME-3M melanoma
OVCAR-8 ovarian = tested on: OVCAR-8 ovarian
SNB-19 CNS = tested on: SNB-19 CNS
MCF7 breast = tested on: MCF7 breast
KM12 colon = tested on: KM12 colon
DU-145 prostate = tested on: DU-145 prostate

| SMILES | TGI (U251 CNS) [µM] | TGI (NCI-H23 lung) [µM] | TGI (SN12C renal) [µM] | TGI (EKVX NSCLC) [µM] | TGI (MALME-3M melanoma) [µM] | TGI (OVCAR-8 ovarian) [µM] | TGI (SNB-19 CNS) [µM] | GI50 (U251 CNS) | GI50 (NCI-H23 lung) [µM] | GI50 (MCF7 breast) [µM] | TGI (MCF7 breast) [µM] | GI50 (SN12C renal) [µM] | GI50 (KM12 colon) [µM] | TGI (KM12 colon) [µM] | GI50 (EKVX NSCLC) [µM] | GI50 (DU-145 prostate) [µM] | TGI (DU-145 prostate) [µM] | GI50 (OVCAR-8 ovarian) [µM] | GI50 (SNB-19 CNS) [µM] | GI50 (MALME-3M melanoma) [µM] |
| --- | --- | --- | --- | --- | --- | --- | --- | --- | --- | --- | --- | --- | --- | --- | --- | --- | --- | --- | --- | --- |
| O=C(O)CSc1n[nH]c(-c2ccccc2O)n1 | > 100 | > 100 | > 100 | > 100 | > 100 | > 100 | > 100 | – | – | – | – | – | – | – | – | – | – | – | – | – |
| NCCNCCNCCN | > 100 | > 100 | > 100 | > 100 | – | > 100 | > 100 | > 100 µM | > 100 | > 100 | > 100 | > 100 | > 100 | > 100 | > 100 | > 100 | > 100 | > 100 | > 100 | – |
| C#Cc1cccc(Nc2nc3cc([N+](=O)[O-])ccc3nc2Nc2ccc(O)cc2)c1 | 3.71 | – | – | 5.26 | 4.32 | 6.48 | 3.19 | 1.8 µM | – | 2.2 | 6.11 | – | 1.83 | 3.89 | 1.86 | 1.81 | 3.77 | 2.33 | 1.78 | 1.93 |
| CC(=O)N[C@@H](Cc1ccc(OP(=O)(O)O)cc1)C(=O)N[C@H]1CCC(=O)N2CCC[C@@H](C(=O)Nc3cccc4ccccc34)N2C1=O | > 25 | > 25 | > 25 | – | > 25 | > 25 | > 25 | > 25 µM | > 25 | > 25 | > 25 | > 25 | > 25 | > 25 | – | > 25 | > 25 | > 25 | > 25 | > 25 |
| Cc1[cH-]c(=O)n(-c2ccccc2)n1.[Au+].[Au].c1ccc([PH+](c2ccccc2)c2ccccc2)cc1.c1ccc([PH+](c2ccccc2)c2ccccc2)cc1 | 27.3 | 46.1 | > 100 | 79.7 | 31.1 | 41.5 | 32.7 | 4.97 µM and 13.1 µM | 9.75 | – | – | 37.5 | 36.7 | > 100 | 23 | – | – | 14.6 | 12.5 | 9.61 |
| COc1c(CC(C)=O)ccc2c1C(=O)c1ccc(C=O)c(OC(C)=O)c1C2=O | 36.8 | – | 27.6 | 56.9 | 25.5 | 97.3 | 57.4 | – | – | – | – | – | – | 39.2 | – | – | – | – | – | – |
| O=C1NC(=NCc2ccccc2)S/C1=C\c1ccc2ncccc2c1 | > 25 | > 25 | > 25 | – | > 25 | > 25 | > 25 | > 25 µM | > 25 | > 25 | > 25 | > 25 | > 25 | > 25 | – | > 25 | > 25 | > 25 | > 25 | > 25 |
